Experimental data taken from patent publication US20020155172A1, “Methods and compounds for decreasing cell toxicity or death” (priority 2000, published 2002).

Legend:
[1] = system: HeLa cells transfected with Q79-GFP; assay: Cellular ATP levels (ATPLite) in Q79 expressing HeLa cells; type: cell-based
Method: We also investigated whether Congo red prevented other cellular events during cell death, including ATP depletion, caspase activation, and protein synthesis inhibition. HeLa cells were transfected with the Q79-GFP construct. Forty-eight hours later, the viability of cells expressing expanded polyglutamine repeats was determined by measuring cellular ATP levels, suing an ATPLite™ kit, according to the directions provided by the manufacturer (Packard, Co.) (FIG. 5A).
To determine the effect of Congo red (100 μM) on polyglutamine-induced cell toxicity. HeLa cells were transiently transfected with Q79-GFP, and six hours later were administered various concentrations of Congo red. Cell viability was assayed 72 hours after transfection, by measuring the level of ATP in each sample. ATP levels in cells expressing Q79 were determined by using the ATPLite™ kit as recommended by the manufacturer (Packard, Inc.). Briefly, cells were transfected with Q79 and treated 6 hours after transfection. Forty-two hours later, the levels of ATP were determined. (FIG. 5C).
A high-throughput method for identifying compounds that decrease cell toxicity or death has been designed. In this method, cells were seeded at 2×10^5 cells in 100 mm dishes. The next day the plated cells were transiently transfected with a plasmid encoding an expanded polyglutamine repeat, for example, Q79. Three hours later, transfection efficiency was assessed. Plates containing cells having 10-20% transfection efficiency at this 3 hour time point were trypsinized and re-plated at 600 or at 1500 cells per well in 384 well plates with clear bottoms. After 6 hours, the candidate compounds were added to the multi-well plates. The cells were cultured for 48 hours and ATP levels were determined using an ATPLite™ kit. Data was then expressed in either arbitrary units, or as relative ratio of ATP levels in Q79 transfected cells in compound-treated relative to vehicle-treated samples.
Derivatives of Congo red (commercially available from Sigma/Aldrich) were tested for their ability to alter cell toxicity and death by measuring ATP depletion and luciferase expression. The assay was carried out as described above for the high-throughput identification of compounds. Briefly, HeLa cells were transiently transfected with a Q79/GFP plasmid and were subsequently treated with various concentrations of Congo red, or 25 μM of each of Direct Orange 6, Direct Red 1, Direct Orange 1, Direct Black 51, Direct Orange 8, Direct Yellow 26, Direct Yellow 28, or Direct Blue 158. Drug treatment continued for 6 hours and then 48 hours later, ATP levels were measured in these cells and compared to the ATP levels in cells that were transiently transfected with GFP only, and also received the compound.

GST-Q81 beads = assay: Chemical absorption assay, Q81; type: binding; details: 25 μM of each (FIG. 6B)
Method: FIG. 6B is a graph of the percent of binding of various compounds to amyloid-like Q81 aggregates measured using a chemical absorption assay. The anti-amyloid compounds minocycline, Chrysamine G, Rolitetracycline, iota carrageenan, dextran 500 (dextran), or Congo red (25 μM of each) were pre-absorbed with Q81 GST recombinant protein and the percentage absorbance of the compound remaining in the supernatant after absorption with GST-Q81 beads is plotted on the y-axis.
To determine if Congo red and its derivatives directly bind to expanded polyglutamine aggregates, we designed a chemical absorption assay. This assay measures the remaining Congo red in the supernatant after incubating the supernatant with GST-tagged polyglutamine beads, and removing the GST-polyglutamine beads by centrifugation. This assay was carried out as follows. Recombinant protein GST-Q19, GST-Q62, and GST-Q81 (containing 19, 62, and 81 polyglutamines, respectively) was purified from E. coli by glutathione beads. After several washes with PBS containing protease inhibitors, the beads were allowed to settle to the bottom of the tube at 24° C. for 10 minutes. The polyglutamine-bound beads were aliquoted and diluted with two volumes of 10 μg/ml of Congo red in PBS. The beads were mixed and centrifuged at 15,000 rpm for 2 minutes and the supernatant was removed and diluted 1:100. The percentage absorbance of the compound remaining in the supernatant after absorption with the GST-polyQ beads was then detected. In addition, Congo red- or PBS-only treated polyglutamine polypeptide bead pellets were washed three times with 100 volumes of PBS and then the protein was separated by 12% polyacrylamide gels and immunoblotted as mentioned above. Some blots were used for immunostaining with anti-polyglutamine antibody (EM48). Other blots were left unstained to visualize the red color of Congo red that entered the gel along with the polyglutamine protein.
Binding of the above-identified compounds to amyloid-like Q81 aggregates was also assessed by a chemical absorption assay. The compounds indicated in FIG. 19 (25 μM of each) were pre-absorbed with a Q81 GST recombinant protein and the percentage absorbance of the compound remaining in the supernatant after absorption with GST-Q81 beads was then detected.

[2] = system: HeLa cells transfected with Q79-GFP; assay: Q79-GFP aggregates in HeLa cells by fluorescence microscopy; type: cell-based; details: 100 μM
Method: FIG. 5I is a set of scanned images of HeLa cells expressing Q79-GFP and subsequently treated with Congo red (100 μM), or ZVAD (100 μM), as detected by fluorescence microscopy.
Changes in energy metabolism have been detected in brains of pre-symptomatic HD animal models, and in pre-symptomatic patients. We detected a pronounced decline in ATP levels upon expanded polyglutamine expression in cells as early as 24 hours. […] Expression of Q79-GFP in HeLa cells transfected with Q79-GFP and subsequently treated with Congo red (100 μM), or ZVAD (100 μM), is shown in FIG. 51.

caspase-8 = assay: Activation of caspase-8 by Western blot; type: cell-based; details: HeLa, HA-tagged Q79-GFP
Method: Expanded polyglutamine repeats recruit and activate caspase-8 (Sanchez et al., supra). We tested if the treatment of cells expressing expanded polyglutamine repeats with Congo red inhibits the activation of caspase-8. HeLa cells were transfected with a hemagglutinin-tagged (HA) […]-GFP construct in the presence or absence of Congo red and the cell lysates were analyzed by Western blot analysis for the expression of caspase-8, or for expression of HA. The appearance of a 45 kilodalton active caspase-8 fragment was detected at 24 hours after transfection, which was before significant loss of cytoplasmic membrane integrity and morphological changes occurred, and near the time of ATP loss (FIG. 5E).

Q79-GFP aggregates = assay: Decrease of pre-formed Q79-GFP aggregates in vitro; type: biochemical
Method: Q79-GFP was expressed and purified from bacteria using standard molecular biology techniques. These fusion proteins form aggregates in vitro which can be viewed under an inverted fluorescence microscope. The Q79-GFP aggregates were administered Congo red (1 nM to 100 μM) and the ability of Congo red to decrease the aggregate was visually assessed.
This assay was also carried out on Q79-GFP aggregates that were administered compounds known to disrupt other types of aggregates, for example, beta-amyloid fibril aggregates. The Q79-GFP aggregates were administered Iota-carrageenan, dextran, minocycline, rolitetracycline, or Chrysamine G Congo red (100 μM each), and visually examined for the effect of each compound on disruption of the aggregate, as well as the density and size of the aggregates.

For Nc1c(/N=N/c2ccc(-c3ccc(/N=N/c4cc(S(=O)(=O)O)c5ccccc5c4N)cc3)cc2)cc(S(=O)(=O)O)c2ccccc12 [Congo red, diphenyldiazo-bis-alpha-napthylaminesulfonate], the “protection from polyglutamine repeat-induced cell death (ATP levels)” value ([1]; 25 or 50 μM, Q79-GFP) was “very effective at protecting cells”, the ATP loss ([1]; HA-tagged Q79-GFP, caspase-8 experiment) was “significantly inhibited ATP loss” and the “concentration at which protection from polyglutamine repeat-induced cell death begins (ATP levels)” value ([1]; Q79-GFP, treated six hours after transfection) was 12 µM. For the same molecule, the “binding to 81-repeat polyglutamine polypeptide” value (GST-Q81 beads) was “binds to expanded polyglutamines”, the “polyglutamine aggregates in cells” value [2] was “displayed fewer polyglutamine aggregates” and the “appearance of active caspase-8 (45 kilodalton fragment)” value (caspase-8) was “completely inhibited the appearance of active caspase-8”. The “decrease of pre-formed polyglutamine aggregates” value (Q79-GFP aggregates; 1 nM to 100 μM, visually assessed) was “decreased the pre-formed polyglutamine aggregates” and the “dissolution or disruption of pre-formed expanded polyglutamine repeat aggregates” value (Q79-GFP aggregates; 100 μM each, visually examined) was “dissolution or disruption of pre-formed expanded polyglutamine repeat aggregates were detected”.
